For this test, the system named is nude mice, A549 intrarenal xenograft, tumor weight change. The experiment in a line: NCI In Vivo Anticancer Drug Screen. Data for tumor model A549 Human Adenocarcinoma of Lung with characteristics of Type II Alveolar Epithelial cells (intrarenal inoculation) in NU/NU BALB/C (nude) mice. The note with it: endpoint: mean tumor weight change, higher = larger tumour. A digest of the protocol: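 Activity is expressed as T/C: the treated-group value over the vehicle-treated control value. The measure was survival or tumor size in mice carrying transplantable tumors.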

[1] abbreviates: dose: 150.0 mg/kg/injection, schedule: Q04DX003 (ip), vehicle: saline with Tween-80.
Where [2] appears, read: dose: 10.0 mg/kg/injection, schedule: Q04DX003 (ip), vehicle: Klucel (hydroxypropylcellulose) (HPC).
Where [3] appears, read: dose: 3.75 mg/kg/injection, schedule: Q04DX003 (ip), vehicle: saline.
[4] abbreviates: dose: 7.5 mg/kg/injection, schedule: Q04DX003 (ip), vehicle: saline.
[5] abbreviates: dose: 30.0 mg/kg/injection, schedule: Q04DX003 (ip), vehicle: saline.

The structures appear in SMILES notation. Several values for one entry are separate records, joined by “and”; a condition that tells them apart may be missing. Identical values can stand only once. Results filed as inconclusive are left out.

In the case of `CN(C)N=Nc1ccc(C(N)=O)cc1`, the T/C (dose: 22.5 mg/kg/injection, schedule: Q04DX003 (ip), vehicle: saline with Tween-80) was 65 % of control; the T/C (dose: 45.0 mg/kg/injection, schedule: Q04DX003 (ip), vehicle: saline with Tween-80) was 55 % of control; the T/C (dose: 90.0 mg/kg/injection, schedule: Q04DX003 (ip), vehicle: saline with Tween-80) was 54 % of control; the T/C (dose: 180.0 mg/kg/injection, schedule: Q04DX003 (ip), vehicle: saline with Tween-80) was 17 % of control; the T/C (dose: 216.0 mg/kg/injection, schedule: Q04DX003 (ip), vehicle: saline with Tween-80) is 39 % of control; the T/C (dose: 360.0 mg/kg/injection, schedule: Q04DX003 (ip), vehicle: saline with Tween-80) was 2 % of control and 15 % of control.
Regarding `Nc1ccc2ccc(N)cc2c1`, the T/C (dose: 100.0 mg/kg/injection, schedule: Q04DX003 (ip), vehicle: saline with Tween-80) was 87 % of control; the T/C (dose: 200.0 mg/kg/injection, schedule: Q04DX003 (ip), vehicle: saline with Tween-80) was 111 % of control; the T/C (dose: 400.0 mg/kg/injection, schedule: Q04DX003 (ip), vehicle: saline with Tween-80) is 55 % of control.
For the molecule `CO[C@H](/C(C)=C/C=C/C(C)=C/c1coc(C)n1)[C@H](C)[C@H]1C[C@@H](O)[C@@]2(C)O[C@H]2/C=C/[C@@H](C)[C@@H]2C[C@@H](CC(=O)O2)C[C@H]2O[C@@H]2C(=O)O1`, the T/C is 71 % of control (dose: 0.07 mg/kg/injection, schedule: Q04DX003 (ip), vehicle: other); 54 % of control (dose: 0.12 mg/kg/injection, schedule: Q04DX003 (ip), vehicle: other); 54 % of control (dose: 0.13 mg/kg/injection, schedule: Q01DX009 (ip), vehicle: Klucel (hydroxypropylcellulose) (HPC)); 57 % of control (dose: 0.18 mg/kg/injection, schedule: Q04DX003 (ip), vehicle: Klucel (hydroxypropylcellulose) (HPC)); 15 % of control (dose: 0.2 mg/kg/injection, schedule: Q01DX009 (ip), vehicle: Klucel (hydroxypropylcellulose) (HPC)); 86 % of control (dose: 0.2 mg/kg/injection, schedule: Q04DX003 (ip), vehicle: other). For the same molecule, the T/C is 38 % of control (dose: 0.3 mg/kg/injection, schedule: Q01DX009 (ip), vehicle: Klucel (hydroxypropylcellulose) (HPC)); 41 % of control (dose: 0.3 mg/kg/injection, schedule: Q04DX003 (ip), vehicle: Klucel (hydroxypropylcellulose) (HPC)); 21 % of control (dose: 0.33 mg/kg/injection, schedule: Q04DX003 (ip), vehicle: other); 26 % of control (dose: 0.5 mg/kg/injection, schedule: Q04DX003 (ip), vehicle: Klucel (hydroxypropylcellulose) (HPC)); 21 % of control (dose: 0.83 mg/kg/injection, schedule: Q04DX003 (ip), vehicle: Klucel (hydroxypropylcellulose) (HPC)).
As for `NC(=O)c1[nH]cnc1O`, under setting [1], the T/C is 151 % of control.
Consider `C=CCOc1cc2c(cc1C(C)c1ccc(OC)cc1)OCO2` (centres undefined), for which the T/C is 58 % of control (dose: 75.0 mg/kg/injection, schedule: Q04DX003 (ip), vehicle: Klucel (hydroxypropylcellulose) (HPC)); 94 % of control and 77 % of control (dose: 150.0 mg/kg/injection, schedule: Q04DX003 (ip), vehicle: Klucel (hydroxypropylcellulose) (HPC)).
`Nc1ccn([C@@H](C=O)C[C@@H](C=O)CO)c(=O)n1`: the T/C (dose: 37.5 mg/kg/injection, schedule: Q04DX003 (ip), vehicle: saline with Tween-80) was 42 % of control; the T/C (dose: 75.0 mg/kg/injection, schedule: Q04DX003 (ip), vehicle: saline with Tween-80) was 245 % of control; the T/C under setting [1] is 66 % of control; the T/C (dose: 300.0 mg/kg/injection, schedule: Q04DX003 (ip), vehicle: saline with Tween-80) was 216 % of control and 82 % of control; the T/C (dose: 600.0 mg/kg/injection, schedule: Q04DX003 (ip), vehicle: saline with Tween-80) was 48 % of control; the T/C (dose: 1200.0 mg/kg/injection, schedule: Q04DX003 (ip), vehicle: saline with Tween-80) is 26 % of control.
For the molecule `CCOC(=O)/N=[N+](\[O-])c1ccccc1`, the T/C (dose: 12.5 mg/kg/injection, schedule: Q04DX003 (ip), vehicle: saline with Tween-80) is 156 % of control; the T/C (dose: 25.0 mg/kg/injection, schedule: Q04DX003 (ip), vehicle: saline with Tween-80) is 245 % of control; the T/C (dose: 50.0 mg/kg/injection, schedule: Q04DX003 (ip), vehicle: saline with Tween-80) is 217 % of control.
Turning to `O=C1C(=O)c2cccnc2-c2ncccc21`, the T/C is, setting by setting: (dose: 1.25 mg/kg/injection, schedule: Q04DX003 (ip), vehicle: Klucel (hydroxypropylcellulose) (HPC)) 59 % of control; (dose: 2.5 mg/kg/injection, schedule: Q04DX003 (ip), vehicle: Klucel (hydroxypropylcellulose) (HPC)) 55 % of control; under setting [2], 6 % of control.
Take `CN=C(N)c1ccc(N=C(N)c2ccc(C(N)=Nc3ccc(C(N)=NC)cc3)cc2)cc1`: the T/C is 70 % of control (dose: 13.0 mg/kg/injection, schedule: Q06HX010 (ip), vehicle: water) and 98 % of control (dose: 20.0 mg/kg/injection, schedule: Q06HX010 (ip), vehicle: water).
As for `NC(=S)N/N=C/c1cc(=O)c2cc(Cl)ccc2o1`, the T/C is, setting by setting: (dose: 75.0 mg/kg/injection, schedule: Q04DX003 (ip), vehicle: DMSO) 66 % of control; (dose: 150.0 mg/kg/injection, schedule: Q04DX003 (ip), vehicle: other) 15 % of control; (dose: 300.0 mg/kg/injection, schedule: Q04DX003 (ip), vehicle: DMSO) 152 % of control; (dose: 300.0 mg/kg/injection, schedule: Q04DX003 (ip), vehicle: other) 29 % of control; (dose: 600.0 mg/kg/injection, schedule: Q04DX003 (ip), vehicle: DMSO) 150 % of control; (dose: 600.0 mg/kg/injection, schedule: Q04DX003 (ip), vehicle: other) 36 % of control.
As to `COc1cccc2c1C(CO)N1C(C#N)C3CC(C(=O)O)C(C1C2)N3C` (centres undefined), the T/C under setting [3] was 24 % of control; the T/C (dose: 6.25 mg/kg/injection, schedule: Q04DX003 (ip), vehicle: saline) was 32 % of control; the T/C (dose: 7.5 mg/kg/injection, schedule: Q04DX003 (ip), vehicle: saline with Tween-80) is 64 % of control; the T/C under setting [4] is 73 % of control; the T/C (dose: 12.5 mg/kg/injection, schedule: Q04DX003 (ip), vehicle: saline) was 76 % of control; the T/C (dose: 15.0 mg/kg/injection, schedule: Q04DX003 (ip), vehicle: saline with Tween-80) was 57 % of control. Besides, the T/C by setting is: (dose: 15.0 mg/kg/injection, schedule: Q04DX003 (ip), vehicle: saline) 59 % of control; (dose: 25.0 mg/kg/injection, schedule: Q04DX003 (ip), vehicle: saline) 33 % of control; (dose: 30.0 mg/kg/injection, schedule: Q04DX003 (ip), vehicle: saline with Tween-80) 59 % of control; under setting [5], 39 % of control; (dose: 50.0 mg/kg/injection, schedule: Q04DX003 (ip), vehicle: saline) 52 % of control; (dose: 60.0 mg/kg/injection, schedule: Q04DX003 (ip), vehicle: saline) 17 % of control.
With `CC1=C[P+](c2ccccc2)(c2ccccc2)C=C(c2ccccc2)O1`, the T/C (dose: 1.0 mg/kg/injection, schedule: Q04DX003 (ip), vehicle: suspension in saline) is 94 % of control; the T/C (dose: 2.0 mg/kg/injection, schedule: Q04DX003 (ip), vehicle: suspension in saline) was 89 % of control; the T/C (dose: 8.0 mg/kg/injection, schedule: Q04DX003 (ip), vehicle: suspension in saline) is 80 % of control.
As for `COc1cc2c(c(OC)c1O)-c1ccc(OC)c(=O)cc1[C@@H](NC(=O)C(F)(F)F)CC2`, the T/C by setting is: (dose: 5.0 mg/kg/injection, schedule: Q04DX003 (ip), vehicle: Klucel (hydroxypropylcellulose) (HPC)) 7 % of control; (dose: 7.2 mg/kg/injection, schedule: Q04DX003 (ip), vehicle: Klucel (hydroxypropylcellulose) (HPC)) 116 % of control; under setting [2], 48 % of control; (dose: 12.0 mg/kg/injection, schedule: Q04DX003 (ip), vehicle: Klucel (hydroxypropylcellulose) (HPC)) 90 % of control.
For the molecule `CN1COc2c(n(C)c(=O)[nH]c2=O)C1`, the T/C (dose: 150.0 mg/kg/injection, schedule: Q04DX003 (ip), vehicle: suspension in saline) was 97 % of control; the T/C (dose: 300.0 mg/kg/injection, schedule: Q04DX003 (ip), vehicle: suspension in saline) is 46 % of control; the T/C (dose: 600.0 mg/kg/injection, schedule: Q04DX003 (ip), vehicle: suspension in saline) was 88 % of control; the T/C (dose: 1200.0 mg/kg/injection, schedule: Q04DX003 (ip), vehicle: suspension in saline) was 67 % of control.
`O=S(=O)(O)c1cc(N=C=S)ccc1/C=C/c1ccc(N=C=S)cc1S(=O)(=O)O`: the T/C is, setting by setting: under setting [3], 107 % of control; under setting [4], 64 % of control; under setting [5], 118 % of control.

Values taken from PubChem BioAssay AID278 (DTP/NCI, 2004).
